Assay results from ChEMBL document CHEMBL5584323, “Peptide-Mediated Small Molecule Lysosome-Targeting Chimeras for Targeted Degradation of Membrane and Intracellular Proteins” (J Med Chem, 2024).
Calls of active or inactive are those of the source. The rule behind the calls is not given here. Starred links: 1 amine or outer side, 2 acyl side, 3 side chain; linkers in the order of their positions; H or OH if unused. Non-standard residues stand in square brackets, D forms with d. Residues, ends and D or L forms follow the SMILES beside them. *: point of attachment. X5 = Nc1ncnc2c1c(-c1ccc(Oc3ccccc3)cc1)nn2[C@@H]1CCCN(C(=O)/C=C/CN2CCN(CCOCCOCCC(=O)*)CC2)C1; X4 = COc1nc(OCc2cccc(-c3ccccc3)c2C)ccc1CNCCNC(=O)CCCc1cn(CC(=O)*)nn1; X1 = Cc1ccc(-n2nc3c(=O)n(CCCC(=O)*)nc(C)c3c2C)cc1; X2 = O=S(=O)(c1ccc(NC(=S)NCc2cccnc2)cc1)*; X3 = O=C(CCCCCCCN1CCN([*:1])CC1)[*:2]; Aoc = NCCCCCCCC(=O)O

Experiments:
[1] = molecular target: T1, Programmed cell death 1 ligand 1 (Homo sapiens, UniProt Q9NZQ7); experiment: Peptide-mediated small molecule lysosome-targeting chimeric activity based PD-L1 degradation in human A549 cells at 0.1 to 5 uM incubated for 48 hrs by Western blot analysis relative to control; format: cell-based; conditions: dose 0.1-5 µM
[2] = molecular target: T1, Programmed cell death 1 ligand 1; experiment: Peptide-mediated small molecule lysosome-targeting chimeric activity based PD-L1 degradation in Baf-A1-treated human A549 cells upto 5 uM incubated for 48 hrs by Western blot analysis; format: cell-based
[3] = molecular target: T1, Programmed cell death 1 ligand 1; experiment: Peptide-mediated small molecule lysosome-targeting chimeric activity based PD-L1 degradation in human A549 cells incubated for 48 hrs by Western blot analysis; format: cell-based
MIA PaCa-2 [4] = experiment: Antiproliferative activity against human MIA PaCa-2 cells incubated for 72 hrs by CKK8 assay; format: functional, cell-based; conditions: MIA PaCa-2, 72 h
MIA PaCa-2 [5] = experiment: Induction of apoptosis in human MIA PaCa-2 cells assessed as late apoptotic cells at 5 uM incubated for 48 hrs by Annexin V-FITC/PI staining based flow cytometry (reference value: 2.90 %); format: functional
MIA PaCa-2 [6] = experiment: Effect on total Erk in human MIA PaCa-2 cells at 0.1 to 5 uM incubated for 48 hrs by Western blot analysis; format: functional, cell-based; conditions: dose 0.1-5 µM
MIA PaCa-2 [7] = experiment: Induction of apoptosis in human MIA PaCa-2 cells assessed as viable cells at 5 uM incubated for 48 hrs by Annexin V-FITC/PI staining based flow cytometry (reference value: 92.1 %); format: functional; conditions: read-out: Activity
MIA PaCa-2 [8] = experiment: Induction of apoptosis in human MIA PaCa-2 cells assessed as necrotic cells at 10 uM incubated for 48 hrs by Annexin V-FITC/PI staining based flow cytometry (reference value: 0.55 %); format: functional
MIA PaCa-2 [9] = experiment: Effect on total Akt in human MIA PaCa-2 cells at 0.1 to 5 uM incubated for 48 hrs by Western blot analysis; format: functional, cell-based; conditions: dose 0.1-5 µM
MIA PaCa-2 [10] = experiment: Induction of apoptosis in human MIA PaCa-2 cells assessed as viable cells at 20 uM incubated for 48 hrs by Annexin V-FITC/PI staining based flow cytometry (reference value: 92.1 %); format: functional; conditions: read-out: Activity
MIA PaCa-2 [11] = experiment: Induction of apoptosis in human MIA PaCa-2 cells assessed as necrotic cells at 5 uM incubated for 48 hrs by Annexin V-FITC/PI staining based flow cytometry (reference value: 0.55 %); format: functional
[12] = molecular target: T2, Retinal rod rhodopsin-sensitive cGMP 3',5'-cyclic phosphodiesterase subunit delta (Homo sapiens, UniProt O43924); experiment: Peptide-mediated small molecule lysosome-targeting chimeric activity based PDE-delta degradation in human MIA PaCa-2 cells at 5 uM incubated for 48 hrs by Western blot analysis relative to control; format: cell-based
MIA PaCa-2 [13] = experiment: Induction of apoptosis in human MIA PaCa-2 cells assessed as late apoptotic cells at 10 uM incubated for 48 hrs by Annexin V-FITC/PI staining based flow cytometry (reference value: 2.90 %); format: functional
MIA PaCa-2 [14] = experiment: Induction of apoptosis in human MIA PaCa-2 cells assessed as early apoptotic cells at 5 uM incubated for 48 hrs by Annexin V-FITC/PI staining based flow cytometry (reference value: 4.45 %); format: functional
[15] = molecular target: T2, Retinal rod rhodopsin-sensitive cGMP 3',5'-cyclic phosphodiesterase subunit delta; experiment: Peptide-mediated small molecule lysosome-targeting chimeric activity based PDE-delta degradation in human MIA PaCa-2 cells at 0.1 uM incubated for 48 hrs by Western blot analysis; format: cell-based
MIA PaCa-2 [16] = experiment: Induction of apoptosis in human MIA PaCa-2 cells assessed as necrotic cells at 20 uM incubated for 48 hrs by Annexin V-FITC/PI staining based flow cytometry (reference value: 0.55 %); format: functional
MIA PaCa-2 [17] = experiment: Induction of apoptosis in human MIA PaCa-2 cells assessed as early apoptotic cells at 20 uM incubated for 48 hrs by Annexin V-FITC/PI staining based flow cytometry (reference value: 4.45 %); format: functional
[18] = molecular target: T2, Retinal rod rhodopsin-sensitive cGMP 3',5'-cyclic phosphodiesterase subunit delta; experiment: Peptide-mediated small molecule lysosome-targeting chimeric activity based PDE-delta degradation in Baf-A1-treated human MIA PaCa-2 cells at 0.5 to 1 uM incubated for 48 hrs by Western blot analysis; format: cell-based; conditions: dose 0.5-1 µM
MIA PaCa-2 [19] = experiment: Induction of apoptosis in human MIA PaCa-2 cells assessed as late apoptotic cells at 20 uM incubated for 48 hrs by Annexin V-FITC/PI staining based flow cytometry (reference value: 2.90 %); format: functional
[20] = Stability of compound in PBS buffer incubated for 48 hrs by HPLC analysis; format: physicochemical
[21] = molecular target: T2, Retinal rod rhodopsin-sensitive cGMP 3',5'-cyclic phosphodiesterase subunit delta; experiment: Peptide-mediated small molecule lysosome-targeting chimeric activity based PDE-delta degradation in human MIA PaCa-2 cells incubated for 48 hrs by Western blot analysis; format: cell-based
MIA PaCa-2 [22] = experiment: Induction of apoptosis in human MIA PaCa-2 cells assessed as viable cells at 10 uM incubated for 48 hrs by Annexin V-FITC/PI staining based flow cytometry (reference value: 92.1 %); format: functional; conditions: read-out: Activity
[23] = molecular target: T2, Retinal rod rhodopsin-sensitive cGMP 3',5'-cyclic phosphodiesterase subunit delta; experiment: Peptide-mediated small molecule lysosome-targeting chimeric activity based PDE-delta degradation in human MIA PaCa-2 cells assessed as reduction in Akt phosphorylation at S473 at 2 uM incubated for 48 hrs by Western blot analysis; format: cell-based
[24] = molecular target: T2, Retinal rod rhodopsin-sensitive cGMP 3',5'-cyclic phosphodiesterase subunit delta; experiment: Peptide-mediated small molecule lysosome-targeting chimeric activity based PDE-delta degradation in human MIA PaCa-2 cells assessed as increase in lysosome-related organelles at 1 uM incubated for 48 hrs by TEM analysis; format: cell-based
[25] = Metabolic stability in rat liver microsomes assessed as half life; format: ADME, Microsome
[26] = molecular target: T2, Retinal rod rhodopsin-sensitive cGMP 3',5'-cyclic phosphodiesterase subunit delta; experiment: Peptide-mediated small molecule lysosome-targeting chimeric activity based PDE-delta degradation in human MIA PaCa-2 cells assessed as reduction in Erk phosphorylation at Thr202/Tyr204 at 0.1 to 5 uM incubated for 48 hrs by Western blot analysis; format: cell-based; conditions: dose 0.1-5 µM
MIA PaCa-2 [27] = experiment: Induction of apoptosis in human MIA PaCa-2 cells assessed as early apoptotic cells at 10 uM incubated for 48 hrs by Annexin V-FITC/PI staining based flow cytometry (reference value: 4.45 %); format: functional
[28] = molecular target: Tyrosine-protein kinase BTK (Homo sapiens) (UniProt Q06187); experiment: Peptide-mediated small molecule lysosome-targeting chimeric activity based BTK degradation in human K562 cells at 10 uM incubated for 48 hrs by Western blot analysis relative to control; format: cell-based
[29] = molecular target: T3, Nicotinamide phosphoribosyltransferase (Homo sapiens, UniProt P43490); experiment: Peptide-mediated small molecule lysosome-targeting chimeric activity based NAMPT degradation in human A2780 cells at 1 to 40 uM incubated for 48 hrs by Western blot analysis relative to control; format: cell-based; conditions: dose 1-40 µM
Target sequence in this assay (P43490 whole entry, looked up): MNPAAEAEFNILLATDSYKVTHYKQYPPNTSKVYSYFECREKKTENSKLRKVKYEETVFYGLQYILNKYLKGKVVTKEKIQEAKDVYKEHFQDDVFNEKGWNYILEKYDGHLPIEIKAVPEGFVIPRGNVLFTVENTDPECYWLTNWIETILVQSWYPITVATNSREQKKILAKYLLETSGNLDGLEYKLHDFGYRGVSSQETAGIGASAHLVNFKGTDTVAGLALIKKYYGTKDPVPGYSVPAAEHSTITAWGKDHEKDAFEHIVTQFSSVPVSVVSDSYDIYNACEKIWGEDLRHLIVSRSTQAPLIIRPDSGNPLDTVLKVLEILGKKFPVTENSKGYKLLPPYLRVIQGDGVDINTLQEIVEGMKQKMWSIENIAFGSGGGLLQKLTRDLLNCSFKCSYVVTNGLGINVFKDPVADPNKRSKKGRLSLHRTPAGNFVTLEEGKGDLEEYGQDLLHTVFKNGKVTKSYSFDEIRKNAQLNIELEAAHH

[30] = molecular target: T3, Nicotinamide phosphoribosyltransferase; experiment: Peptide-mediated small molecule lysosome-targeting chimeric activity based NAMPT degradation in human MOLT-4 cells at 1 to 40 uM incubated for 48 hrs by Western blot analysis relative to control; format: cell-based; conditions: dose 1-40 µM
Target sequence in this assay (P43490 whole entry, looked up): as above

[31] = molecular target: T3, Nicotinamide phosphoribosyltransferase; experiment: Peptide-mediated small molecule lysosome-targeting chimeric activity based NAMPT degradation in human MOLT-4 cells incubated for 48 hrs by Western blot analysis; format: cell-based
[32] = molecular target: T3, Nicotinamide phosphoribosyltransferase; experiment: Peptide-mediated small molecule lysosome-targeting chimeric activity based NAMPT degradation in human A2780 cells incubated for 48 hrs by Western blot analysis; format: cell-based

T2 sequence (O43924 whole entry): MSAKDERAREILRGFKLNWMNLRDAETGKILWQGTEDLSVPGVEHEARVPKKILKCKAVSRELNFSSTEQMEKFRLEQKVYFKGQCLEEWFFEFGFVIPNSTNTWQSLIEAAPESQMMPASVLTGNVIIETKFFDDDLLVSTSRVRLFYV
T1 sequence (Q9NZQ7 whole entry): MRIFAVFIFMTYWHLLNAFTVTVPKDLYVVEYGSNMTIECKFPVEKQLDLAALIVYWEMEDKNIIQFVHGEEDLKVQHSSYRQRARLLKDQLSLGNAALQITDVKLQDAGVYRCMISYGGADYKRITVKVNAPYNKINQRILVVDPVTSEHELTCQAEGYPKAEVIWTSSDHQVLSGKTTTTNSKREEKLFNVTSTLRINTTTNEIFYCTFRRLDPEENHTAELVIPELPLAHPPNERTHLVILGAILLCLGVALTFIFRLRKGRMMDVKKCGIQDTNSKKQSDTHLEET
Tyrosine-protein kinase BTK (Homo sapiens), sequence (Q06187 whole entry): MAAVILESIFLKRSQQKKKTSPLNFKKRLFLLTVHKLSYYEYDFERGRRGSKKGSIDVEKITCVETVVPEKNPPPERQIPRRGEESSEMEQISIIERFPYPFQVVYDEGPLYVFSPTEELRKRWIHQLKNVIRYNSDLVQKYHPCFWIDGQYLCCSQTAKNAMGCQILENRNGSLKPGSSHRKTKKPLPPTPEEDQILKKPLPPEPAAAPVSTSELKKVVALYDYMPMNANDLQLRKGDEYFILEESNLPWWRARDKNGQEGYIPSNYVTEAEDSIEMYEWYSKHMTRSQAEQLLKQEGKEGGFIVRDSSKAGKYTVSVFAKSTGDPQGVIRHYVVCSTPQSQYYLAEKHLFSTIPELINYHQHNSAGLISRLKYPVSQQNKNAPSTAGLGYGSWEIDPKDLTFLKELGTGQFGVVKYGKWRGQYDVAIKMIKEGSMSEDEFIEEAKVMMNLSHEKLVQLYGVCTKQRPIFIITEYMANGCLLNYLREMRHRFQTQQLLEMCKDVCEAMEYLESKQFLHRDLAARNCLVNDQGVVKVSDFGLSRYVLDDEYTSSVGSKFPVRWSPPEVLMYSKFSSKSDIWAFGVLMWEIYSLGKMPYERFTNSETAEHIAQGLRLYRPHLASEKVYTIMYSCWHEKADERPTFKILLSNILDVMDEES

COc1nc(OCc2cccc(-c3ccccc3)c2C)ccc1CNCCNC(=O)CCCc1cn(CC(=O)NCC(=O)NCC(=O)N[C@@H](CCCNC(=N)N)C(=O)N[C@@H](CCCNC(=N)N)C(=O)N[C@@H](CCCNC(=N)N)C(=O)N[C@@H](CCCNC(=N)N)C(=O)N[C@@H](CCCNC(=N)N)C(=O)N[C@@H](CCCNC(=N)N)C(=O)N[C@@H](CCCNC(=N)N)C(=O)N[C@@H](CCCNC(=N)N)C(=O)N[C@@H](CCCNC(=N)N)C(=O)N[C@@H](CC(N)=O)C(=O)N2CCC[C@H]2C(=O)NCC(=O)N[C@@H](Cc2ccc(O)cc2)C(N)=O)nn1 (X4-GGRRRRRRRRRNPGY-NH2)
Emax [1]: 92%
Activity [2]: inactive
DC50 [3]: 200 nM

Cc1ccc(-n2nc3c(=O)n(CCCC(=O)NCCCCCNc4cccc5c4C(=O)N(C4CCC(=O)NC4=O)C5=O)nc(C)c3c2C)cc1 (stereo unspecified)
IC50 (MIA PaCa-2 [4]): 9300 nM

Cc1ccc(-n2nc3c(=O)n(CCCC(=O)NCCCCCCCC(=O)NCC(=O)NCC(=O)NCC(=O)N[C@@H](CCCNC(=N)N)C(=O)N[C@@H](CCCNC(=N)N)C(=O)N[C@@H](CCCNC(=N)N)C(=O)N[C@@H](CCCNC(=N)N)C(=O)N[C@@H](CCCNC(=N)N)C(=O)N[C@@H](CCCNC(=N)N)C(=O)N[C@@H](CCCNC(=N)N)C(=O)N[C@@H](CCCNC(=N)N)C(=O)N[C@@H](CCCNC(=N)N)C(=O)N[C@@H](CC(N)=O)C(=O)N4CCC[C@H]4C(=O)NCC(=O)N[C@@H](Cc4ccc(O)cc4)C(N)=O)nc(C)c3c2C)cc1 ({X1-Aoc}-GGGRRRRRRRRRNPGY-NH2)
Activity (MIA PaCa-2 [5]): 3.48%
Activity (MIA PaCa-2 [6]): inactive
viability at 5 µM (MIA PaCa-2 [7]): 88.7%
Activity (MIA PaCa-2 [8]): 2.05%
Activity (MIA PaCa-2 [9]): inactive
viability at 20 µM (MIA PaCa-2 [10]): 59.7%
Activity (MIA PaCa-2 [11]): 0.95%
Emax [12]: 89%
Activity (MIA PaCa-2 [13]): 13.3%
Activity (MIA PaCa-2 [14]): 6.85%
Activity [15]: Active
Activity (MIA PaCa-2 [16]): 3.9%
Activity (MIA PaCa-2 [17]): 16.8%
Activity [18]: inactive
Activity (MIA PaCa-2 [19]): 19.7%
Stability [20]: Stable
DC50 [21]: 230 nM
Activity ([21]; dose 0.1-5 µM): Dose-Dependent Effect
viability at 10 µM (MIA PaCa-2 [22]): 73.3%
Activity [23]: Active
Activity [24]: Active
half-life [25]: 33.5 min
Activity [26]: Active
Activity (MIA PaCa-2 [27]): 10.7%
IC50 (MIA PaCa-2 [4]): 3600 nM

N=C(N)NCCC[C@H](NC(=O)CNC(=O)CNC(=O)CNC(=O)CCOCCOCCN1CCN(C/C=C/C(=O)N2CCC[C@@H](n3nc(-c4ccc(Oc5ccccc5)cc4)c4c(N)ncnc43)C2)CC1)C(=O)N[C@@H](CCCNC(=N)N)C(=O)N[C@@H](CCCNC(=N)N)C(=O)N[C@@H](CCCNC(=N)N)C(=O)N[C@@H](CCCNC(=N)N)C(=O)N[C@@H](CCCNC(=N)N)C(=O)N[C@@H](CCCNC(=N)N)C(=O)N[C@@H](CCCNC(=N)N)C(=O)N[C@@H](CCCNC(=N)N)C(=O)N[C@@H](CC(N)=O)C(=O)N1CCC[C@H]1C(=O)NCC(=O)N[C@@H](Cc1ccc(O)cc1)C(N)=O (X5-GGGRRRRRRRRRNPGY-NH2)
Emax [28]: 63%

N=C(N)NCCC[C@H](NC(=O)CNC(=O)CNC(=O)CNC(=O)CCCCCCCN1CCN(S(=O)(=O)c2ccc(NC(=S)NCc3cccnc3)cc2)CC1)C(=O)N[C@@H](CCCNC(=N)N)C(=O)N[C@@H](CCCNC(=N)N)C(=O)N[C@@H](CCCNC(=N)N)C(=O)N[C@@H](CCCNC(=N)N)C(=O)N[C@@H](CCCNC(=N)N)C(=O)N[C@@H](CCCNC(=N)N)C(=O)N[C@@H](CCCNC(=N)N)C(=O)N[C@@H](CCCNC(=N)N)C(=O)N[C@@H](CC(N)=O)C(=O)N1CCC[C@H]1C(=O)NCC(=O)N[C@@H](Cc1ccc(O)cc1)C(N)=O (X2-[X3]GGGRRRRRRRRRNPGY-NH2)
Emax [29]: 93%
Emax [30]: 90%
DC50 [31]: 7000 nM
Activity ([31]; dose 1-40 µM): Dose-Dependent Effect
DC50 [32]: 890 nM
Activity ([32]; dose 1-40 µM): Dose-Dependent Effect
